Legend:
[1] = Induction of anti-CD3 antibodies-stimulated human T cell activation at 10 uM assessed fold increase in TNF-alpha secretion measured by ELISA assay; type: functional, T cell line; also: reference of the scale not given here
[2] = Induction of anti-CD3 antibodies-stimulated human T cell activation at 1 uM assessed fold increase in CD25 expression measured by ELISA assay; type: functional, T cell line; also: reference of the scale not given here
[3] = Induction of allogenic human T cell activation at 3 uM assessed fold increase in cell proliferation; type: functional, T cell line
[4] = Induction of anti-CD3/CD28 antibodies-stimulated human T cell activation at 1.11 uM assessed fold increase in IFN-gamma secretion measured by ELISA assay; type: functional, T cell line
[5] = Induction of anti-CD3 antibodies-stimulated human exhausted T cell activation assessed fold increase in GM-CSF secretion measured by ELISA assay; type: functional, T cell line; also: reference of the scale not given here
[6] = system: B cell; assay: Induction of anti-IgM-stimulated human CD20+ B cell activation at 10 to 1000 uM assessed as increase in CD69 expression measured as mean fluorescence intensity AUC by flow cytometry analysis; type: functional, cell-based; conditions: dose 10-1000 µM
[7] = Induction of anti-CD3/CD28 antibodies-stimulated human T cell activation at 4 uM assessed fold increase in CD25 expression measured by ELISA assay; type: functional, T cell line
[8] = Induction of anti-CD3/CD28 antibodies-stimulated human T cell activation at 10 uM assessed fold increase in GM-CSF secretion measured by ELISA assay; type: functional, T cell line
[9] = Induction of anti-CD3 antibodies-stimulated human T cell activation at 1.11 uM assessed fold increase in IFN-gamma secretion measured by ELISA assay; type: functional, T cell line; also: reference of the scale not given here
[10] = Induction of anti-CD3/CD28 antibodies-stimulated human T cell activation at 1.11 uM assessed fold increase in GM-CSF secretion measured by ELISA assay; type: functional, T cell line
[11] = Induction of anti-CD3/CD28 antibodies-stimulated human T cell activation at 0.3 uM assessed fold increase in IL-2 secretion measured by ELISA assay; type: functional, T cell line
[12] = Induction of anti-CD3/CD28 antibodies-stimulated human T cell activation at 1.11 uM assessed fold increase in TNF-alpha secretion measured by ELISA assay; type: functional, T cell line
[13] = Induction of anti-CD3 antibodies-stimulated human CD8+ T cell activation at 10 uM assessed fold increase in cell proliferation measured by flow cytometry analysis; type: functional, T cell line; also: reference of the scale not given here
[14] = Induction of anti-CD3/CD28 antibodies-stimulated human T cell activation at 10 uM assessed fold increase in TNF-alpha secretion measured by ELISA assay; type: functional, T cell line
[15] = Induction of anti-CD3/CD28 antibodies-stimulated human CD4+ T cell activation at 10 uM assessed fold increase in cell proliferation measured by flow cytometry analysis; type: functional, T cell line
[16] = Induction of anti-CD3/CD28 antibodies-stimulated human CD8+ T cell activation at 10 uM assessed fold increase in cell proliferation measured by flow cytometry analysis; type: functional, T cell line
[17] = Induction of anti-CD3 antibodies-stimulated human exhausted T cell activation assessed fold increase in IFN-gamma secretion measured by ELISA assay; type: functional, T cell line; also: reference of the scale not given here
[18] = Induction of anti-CD3/CD28 antibodies-stimulated human T cell activation at 4 uM assessed fold increase in IL-2 secretion measured by ELISA assay; type: functional, T cell line
[19] = Induction of anti-CD3 antibodies-stimulated human T cell activation at 8 uM assessed fold increase in IL-2 secretion measured by ELISA assay; type: functional, T cell line; also: reference of the scale not given here
[20] = Induction of anti-CD3/CD28 antibodies-stimulated human CD8+ T cell activation at 1.11 uM assessed fold increase in cell proliferation measured by flow cytometry analysis; type: functional, T cell line
[21] = Induction of anti-CD3 antibodies-stimulated human T cell activation at 1 uM assessed fold increase in IL-2 secretion measured by ELISA assay; type: functional, T cell line; also: reference of the scale not given here
[22] = Induction of anti-CD3/CD28 antibodies-stimulated human anergic T cell activation at 1.11 uM assessed fold increase in IFN-gamma secretion measured by ELISA assay; type: functional, T cell line
[23] = Induction of activation of human CD56+ CD3- NK cells co-cultured with human K562 cells in 1:1 ratio and assessed as increase in IFN-gamma secretion at 10 uM measured by ELISA assay; type: functional, Natural killer cell
[24] = Induction of activation of human CD56+ CD3- NK cells co-cultured with human K562 cells in 1:1 ratio and assessed as increase in TNF-alpha secretion at 2.5 uM measured by ELISA assay; type: functional, Natural killer cell
[25] = Induction of activation of human CD56+ CD3- NK cells co-cultured with human K562 cells in 1:1 ratio and assessed as increase in IFN-gamma secretion at 2.5 uM measured by ELISA assay; type: functional, Natural killer cell
[26] = Induction of anti-CD3/CD28 antibodies-stimulated human CD8+ T cell activation at 10 uM assessed fold increase in CD69 expression measured by flow cytometry analysis; type: functional, T cell line
[27] = Induction of anti-CD3 antibodies-stimulated human CD4+ T cell activation at 10 uM assessed fold increase in CD69 expression measured by flow cytometry analysis; type: functional, T cell line; also: reference of the scale not given here
[28] = Induction of anti-CD3/CD28 antibodies-stimulated human T cell activation at 1 uM assessed fold increase in CD25 expression measured by ELISA assay; type: functional, T cell line
[29] = Induction of activation of human CD56+ CD3- NK cells co-cultured with human K562 cells in 1:1 ratio and assessed as increase in TNF-alpha secretion at 0.625 uM measured by ELISA assay; type: functional, Natural killer cell
[30] = Induction of anti-CD3 antibodies-stimulated human CD4+ T cell activation at 1.11 uM assessed fold increase in CD69 expression measured by flow cytometry analysis; type: functional, T cell line; also: reference of the scale not given here
[31] = Induction of anti-CD3/CD28 antibodies-stimulated human anergic T cell activation at 0.37 uM assessed fold increase in IFN-gamma secretion measured by ELISA assay; type: functional, T cell line
[32] = Induction of anti-CD3 antibodies-stimulated human exhausted CD4+ T cell activation assessed fold increase in CTLA4 expression measured by flow cytometry analysis; type: functional, T cell line; also: reference of the scale not given here
[33] = Induction of anti-CD3/CD28 antibodies-stimulated human T cell activation at 10 uM assessed fold increase in IFN-gamma secretion measured by ELISA assay; type: functional, T cell line
[34] = Induction of anti-CD3 antibodies-stimulated human T cell activation at 10 uM assessed fold increase in GM-CSF secretion measured by ELISA assay; type: functional, T cell line; also: reference of the scale not given here
[35] = Induction of activation of human CD56+ CD3- NK cells co-cultured with human K562 cells in 1:1 ratio and assessed as increase in TNF-alpha secretion at 10 uM measured by ELISA assay; type: functional, Natural killer cell
[36] = Induction of anti-CD3/CD28 antibodies-stimulated human CD4+ T cell activation at 1.11 uM assessed fold increase in CD69 expression measured by flow cytometry analysis; type: functional, T cell line
[37] = Induction of allogenic human T cell activation at 10 uM assessed fold increase in cell proliferation; type: functional, T cell line
[38] = Induction of anti-CD3 antibodies-stimulated human CD8+ T cell activation at 1.11 uM assessed fold increase in cell proliferation measured by flow cytometry analysis; type: functional, T cell line; also: reference of the scale not given here

Structure (SMILES)	fold change (FC) [1]	fold change (FC) [2]	fold change (FC) [3]	fold change (FC) [4]	fold change (FC) [5]	fold change (FC) [8]	fold change (FC) [9]	fold change (FC) [10]	fold change (FC) [11]	fold change (FC) [12]	fold change (FC) [13]	fold change (FC) [14]	fold change (FC) [15]	fold change (FC) [16]	fold change (FC) [17]	fold change (FC) [20]	fold change (FC) [21]	fold change (FC) [22]	fold change (FC) [23]	fold change (FC) [24]	other results
C[C@H](c1cc2c(c(C(F)(F)F)c1)CN(c1cccc(C3(Cc4nncn4C)COC3)c1)C2=O)N1CC[C@H](F)C1	1.51	>=1.001	2.01	<=2	>1.61	>4	2.01	2.01	5	2.01	>4	2.01	>4	>4	>1.61	3.01	>=0.201	>4.01	>=5	2.01	AUC [6]: 1.01; fold change (FC) [7]: 1.31; fold change (FC) [18]: >=7.5; fold change (FC) [19]: >=0.201; fold change (FC) [25]: 2.01; fold change (FC) [26]: 1.201; fold change (FC) [27]: >1.601; fold change (FC) [28]: 1.51; fold change (FC) [29]: 2.01; fold change (FC) [30]: 1.401; fold change (FC) [31]: 2.51; fold change (FC) [32]: >1.61; fold change (FC) [33]: 3.01; fold change (FC) [34]: 2.01; fold change (FC) [35]: >=5; fold change (FC) [36]: 1.401; fold change (FC) [37]: >3; fold change (FC) [38]: 3.01
Cn1cnnc1CC1(c2cccc(N3Cc4c(cc(CN5CCC6(CC6)C5)cc4C(F)(F)F)C3=O)c2)COC1	2.01	>=1.001	>3	>4	1.41	>4	>4	>4	>=7.5	2.01	>4	>4	>4	>4	<=1.4	>4	>=0.201	2.51	>=5	>=5	AUC [6]: > 1.51; fold change (FC) [25]: >=5; fold change (FC) [26]: 1.201; fold change (FC) [27]: >1.601; fold change (FC) [28]: 1.31; fold change (FC) [29]: 2.01; fold change (FC) [30]: >1.601; fold change (FC) [31]: <=2.5; fold change (FC) [32]: >1.61; fold change (FC) [33]: >4; fold change (FC) [34]: >4; fold change (FC) [35]: >=5; fold change (FC) [36]: >1.601; fold change (FC) [37]: >3; fold change (FC) [38]: >4
COC1CN(Cc2cc3c(c(C(F)(F)F)c2)CN(c2cccc([C@@](C)(F)C(F)(F)c4nncn4C)c2)C3=O)C1	1.51	>=1.001	<=2	<=2	>1.61	2.01	3.01	2.01	2.51	1.51	>4	2.01	>4	>4	>1.61	3.01	0.151	2.51	>=5	2.01	fold change (FC) [7]: 1.31; fold change (FC) [18]: >=7.5; fold change (FC) [19]: >=0.201; fold change (FC) [25]: >=5; fold change (FC) [26]: 1.201; fold change (FC) [27]: >1.601; fold change (FC) [28]: 1.31; fold change (FC) [29]: 1.01; fold change (FC) [30]: 1.401; fold change (FC) [31]: <=2.5; fold change (FC) [32]: >1.61; fold change (FC) [33]: 2.01; fold change (FC) [34]: 2.01; fold change (FC) [35]: >=5; fold change (FC) [36]: 1.201; fold change (FC) [37]: <=2; fold change (FC) [38]: 3.01

Source: ChEMBL document CHEMBL5050844 (2019)
